Assay results from ChEMBL document CHEMBL1201861, “Genomics of Drug Sensitity in Cancer screening data, Wellcome Trust Sanger Institute”.

Assays:
Experiment in all cases: cells
A498 = type: functional, cell-based, Homo sapiens; settings: Homo sapiens, A498;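 note: growth inhibition of human A498 cells, read out with a cell viability assay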
Description: SANGER: Inhibition of human A498 cell growth in a cell viability assay.

SCH = type: functional, cell-based, Homo sapiens; settings: Homo sapiens, SCH;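 note: growth inhibition of human SCH cells, read out in a cell viability assay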
Description: SANGER: Inhibition of human SCH cell growth in a cell viability assay.

U-87 MG = type: functional, cell-based, Homo sapiens, U-87MG ATCC; settings: Homo sapiens, U-87 MG;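 note: growth inhibition of the cells measured with a viability assay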
Description: SANGER: Inhibition of human U-87-MG cell growth in a cell viability assay.

HL-60 = type: functional, cell-based, Homo sapiens; settings: Homo sapiens, HL-60;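 note: growth inhibition of human HL-60 cells, read out with a cell viability assay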
Description: SANGER: Inhibition of human HL-60 cell growth in a cell viability assay.

JAR = type: functional, cell-based, Homo sapiens; settings: Homo sapiens, JAR;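 note: growth inhibition of human JAR cells determined with a cell viability assay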
Description: SANGER: Inhibition of human JAR cell growth in a cell viability assay.

BB49-HNC = type: functional, cell-based, Homo sapiens; settings: Homo sapiens, BB49-HNC;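 note: cell viability assay read-out, reported as inhibition of BB49-HNC cell growth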
Description: SANGER: Inhibition of human BB49-HNC cell growth in a cell viability assay.

NB13 = type: functional, cell-based, Homo sapiens; settings: Homo sapiens, NB13;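 note: cell viability readout measuring growth inhibition of human NB13 cells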
Description: SANGER: Inhibition of human NB13 cell growth in a cell viability assay.

TK-10 = type: functional, cell-based, Homo sapiens; settings: Homo sapiens, TK-10;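 note: growth inhibition of TK-10 cells, read out in a cell viability assay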
Description: SANGER: Inhibition of human TK10 cell growth in a cell viability assay.

OCUB-M = type: functional, cell-based; settings: Homo sapiens;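 note: growth inhibition of the cancer cell line, read out through a cell viability assay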
Description: SANGER: Inhibition of human OCUB-M cell growth in a cell viability assay.

8-MG-BA = type: functional, cell-based, Homo sapiens; settings: Homo sapiens, 8-MG-BA;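 note: growth inhibition of 8-MG-BA cells, read out with a cell viability assay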
Description: SANGER: Inhibition of human 8-MG-BA cell growth in a cell viability assay.

MHH-PREB-1 = type: functional, cell-based, Homo sapiens; settings: Homo sapiens, MHH-PREB-1;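 note: cell viability assay measuring inhibition of proliferation of human MHH-PREB-1 cells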
Description: SANGER: Inhibition of human MHH-PREB-1 cell growth in a cell viability assay.

HD-MY-Z = type: functional, cell-based, Homo sapiens; settings: Homo sapiens, HD-MY-Z;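 note: growth inhibition of HD-MY-Z cells, read out with a cell viability assay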
Description: SANGER: Inhibition of human HD-MY-Z cell growth in a cell viability assay.

ES5 = type: functional, cell-based, Homo sapiens; settings: Homo sapiens, ES5;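 note: growth inhibition of human ES5 cells, read out by a cell viability assay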
Description: SANGER: Inhibition of human ES5 cell growth in a cell viability assay.

ETK-1 = type: functional, cell-based, Homo sapiens; settings: Homo sapiens, ETK-1;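 note: growth inhibition of human ETK-1 cells, read out with a cell viability assay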
Description: SANGER: Inhibition of human ETK-1 cell growth in a cell viability assay.

LNCaP-Clone-FGC = type: functional, cell-based, Homo sapiens; settings: Homo sapiens, LNCaP-Clone-FGC
Description: SANGER: Inhibition of human LNCaP-Clone-FGC cell growth in a cell viability assay.

DSH1 = type: functional, cell-based; settings: Homo sapiens;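 note: growth inhibition of human DSH1 cells, measured with a cell viability readout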
Description: SANGER: Inhibition of human DSH1 cell growth in a cell viability assay.

PSN1 = type: functional, cell-based, Homo sapiens; settings: Homo sapiens, PSN1;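 note: suppression of growth of human PSN1 cells, read out by a cell viability assay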
Description: SANGER: Inhibition of human PSN1 cell growth in a cell viability assay.

D283 Med = type: functional, cell-based, Homo sapiens; settings: Homo sapiens, D283 Med
Description: SANGER: Inhibition of human D-283MED cell growth in a cell viability assay.

GT3TKB = type: functional, cell-based, Homo sapiens; settings: Homo sapiens, GT3TKB;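 note: growth inhibition of the cell line, read out with a cell viability assay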
Description: SANGER: Inhibition of human GT3TKB cell growth in a cell viability assay.

EW-11 = type: functional, cell-based, Homo sapiens; settings: Homo sapiens, EW-11;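 note: growth inhibition of human EW-11 cells, measured with a cell viability assay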
Description: SANGER: Inhibition of human EW-11 cell growth in a cell viability assay.

NCI-H209 = type: functional, cell-based, Homo sapiens; settings: Homo sapiens, NCI-H209;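 note: growth inhibition of human NCI-H209 cells, measured by a cell viability assay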
Description: SANGER: Inhibition of human NCI-H209 cell growth in a cell viability assay.

MC116 = type: functional, cell-based, Homo sapiens; settings: Homo sapiens, MC116;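 note: growth inhibition of MC116 cells, read out with a cell viability assay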
Description: SANGER: Inhibition of human MC116 cell growth in a cell viability assay.

A3-KAW = type: functional, cell-based, Homo sapiens; settings: Homo sapiens, A3-KAW;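 note: growth inhibition of human A3-KAW cells, read out with a cell viability assay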
Description: SANGER: Inhibition of human A3-KAW cell growth in a cell viability assay.

A704 = type: functional, cell-based; settings: Homo sapiens;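 note: growth inhibition of human A704 cells, read out with a cell viability assay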
Description: SANGER: Inhibition of human A704 cell growth in a cell viability assay.

MEG-01 = type: functional, cell-based, Homo sapiens; settings: Homo sapiens, MEG-01;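 note: growth inhibition of MEG-01 cells, read out by a cell viability assay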
Description: SANGER: Inhibition of human MEG-01 cell growth in a cell viability assay.

no-10 = type: functional, cell-based, Homo sapiens; settings: Homo sapiens;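 note: growth inhibition of no-10 cells, read out with a cell viability assay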
Description: SANGER: Inhibition of human no-10 cell growth in a cell viability assay.

GAK = type: functional, cell-based, Homo sapiens; settings: Homo sapiens, GAK;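 note: cell growth inhibition read out by a cell viability assay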
Description: SANGER: Inhibition of human GAK cell growth in a cell viability assay.

KS-1 = type: functional, cell-based; settings: Homo sapiens;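 note: growth inhibition of KS-1 cells, read out with a cell viability assay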
Description: SANGER: Inhibition of human KS-1 cell growth in a cell viability assay.

D-247MG = type: functional, cell-based; settings: Homo sapiens
Description: SANGER: Inhibition of human D-247MG cell growth in a cell viability assay.

DU-4475 = type: functional, cell-based, Homo sapiens; settings: Homo sapiens, DU-4475
Description: SANGER: Inhibition of human DU-4475 cell growth in a cell viability assay.

SNB-75 = type: functional, cell-based, Homo sapiens; settings: Homo sapiens, SNB-75;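 note: cell viability assay measuring growth inhibition of human SNB-75 cells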
Description: SANGER: Inhibition of human SNB75 cell growth in a cell viability assay.

LS-411N = type: functional, cell-based, Homo sapiens; settings: Homo sapiens, LS-411N
RPMI-8226 = type: functional, cell-based, Homo sapiens; settings: Homo sapiens, RPMI-8226
Description: SANGER: Inhibition of human RPMI-8226 cell growth in a cell viability assay.

LB771-HNC = type: functional, cell-based; settings: Homo sapiens;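 note: growth inhibition of LB771-HNC human cells, read out with a cell viability assay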
Description: SANGER: Inhibition of human LB771-HNC cell growth in a cell viability assay.

HT-144 = type: functional, cell-based, Homo sapiens; settings: Homo sapiens, HT-144
Description: SANGER: Inhibition of human HT-144 cell growth in a cell viability assay.

HOP-62 = type: functional, cell-based, Homo sapiens; settings: Homo sapiens, HOP-62;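 note: cell growth inhibition determined with a viability assay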
Description: SANGER: Inhibition of human HOP-62 cell growth in a cell viability assay.

BB65-RCC = type: functional, cell-based, Homo sapiens; settings: Homo sapiens, BB65-RCC;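 note: growth inhibition of the cell line, measured with a cell viability assay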
Description: SANGER: Inhibition of human BB65-RCC cell growth in a cell viability assay.

NOMO-1 = type: functional, cell-based, Homo sapiens; settings: Homo sapiens, NOMO-1;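 note: growth inhibition of human NOMO-1 cells measured by a cell viability assay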
Description: SANGER: Inhibition of human NOMO-1 cell growth in a cell viability assay.

SJSA-1 = type: functional, cell-based, Homo sapiens; settings: Homo sapiens, SJSA-1;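 note: growth inhibition of human SJSA-1 cells, read out through a cell viability measurement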
Description: SANGER: Inhibition of human SJSA-1 cell growth in a cell viability assay.

C2BBe1 = type: functional, cell-based, Homo sapiens; settings: Homo sapiens, C2BBe1;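 note: growth inhibition of C2BBe1 cells, read out through a viability assay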
Description: SANGER: Inhibition of human C2BBe1 cell growth in a cell viability assay.

SK-PN-DW = type: functional, cell-based, Homo sapiens; settings: Homo sapiens, SK-PN-DW;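 note: growth inhibition measured with a viability assay on these cells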
Description: SANGER: Inhibition of human SK-PN-DW cell growth in a cell viability assay.

KP-N-YS = type: functional, cell-based, Homo sapiens; settings: Homo sapiens, KP-N-YS;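 note: cell viability assay measuring inhibition of cell line growth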
Description: SANGER: Inhibition of human KP-N-YS cell growth in a cell viability assay.

SW 962 = type: functional, cell-based, Homo sapiens; settings: Homo sapiens, SW 962;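 note: growth inhibition of human SW962 cells, read out by a cell viability assay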
Description: SANGER: Inhibition of human SW962 cell growth in a cell viability assay.

BB30-HNC = type: functional, cell-based, Homo sapiens; settings: Homo sapiens, BB30-HNC;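 note: growth inhibition of the cultured cell line, read out by a cell viability assay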
Description: SANGER: Inhibition of human BB30-HNC cell growth in a cell viability assay.

MMAC-SF = type: functional, cell-based; settings: Homo sapiens;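 note: growth inhibition of human MMAC-SF cells, read out with a cell viability assay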
Description: SANGER: Inhibition of human MMAC-SF cell growth in a cell viability assay.

TE-1 = type: functional, cell-based, Homo sapiens; settings: Homo sapiens, TE-1;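 note: growth inhibition of the human TE-1 cell line, read out with a cell viability assay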
Description: SANGER: Inhibition of human TE-1 cell growth in a cell viability assay.

ES4 = type: functional, cell-based, Homo sapiens; settings: Homo sapiens, ES4;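 note: growth inhibition of human ES4 cells, read out by a cell viability assay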
Description: SANGER: Inhibition of human ES4 cell growth in a cell viability assay.

MLMA = type: functional, cell-based, Homo sapiens; settings: Homo sapiens, MLMA;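 note: growth inhibition of MLMA cells (human), determined through a cell viability readout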
Description: SANGER: Inhibition of human MLMA cell growth in a cell viability assay.

IST-MEL1 = type: functional, cell-based, Homo sapiens; settings: Homo sapiens, IST-MEL1;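 note: growth inhibition of the cell line, read out with a cell viability assay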
Description: SANGER: Inhibition of human IST-MEL1 cell growth in a cell viability assay.

Becker = type: functional, cell-based, Homo sapiens; settings: Homo sapiens, Becker;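 note: growth inhibition of Becker cells, read out with a cell viability assay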
Description: SANGER: Inhibition of human Becker cell growth in a cell viability assay.

SMILES: C=CC(=O)N1CCCC(Nc2nc(Nc3ccc(N(C)C(=O)CC)cc3)nc3[nH]cnc23)C1 (stereo not given)
- IC50 (A498): > 10.2 µM
- IC50 (SCH): > 10.2 µM
- IC50 (U-87 MG): > 10.2 µM
- IC50 (HL-60): > 10.2 µM
- IC50 (JAR): > 10.2 µM
- IC50 (BB49-HNC): > 10.2 µM
- IC50 (NB13): > 10.2 µM
- IC50 (TK-10): > 10.2 µM
- IC50 (OCUB-M): 2.1 µM
- IC50 (8-MG-BA): > 10.2 µM
- IC50 (MHH-PREB-1): > 10.2 µM
- IC50 (HD-MY-Z): > 10.2 µM
- IC50 (ES5): > 10.2 µM
- IC50 (ETK-1): > 10.2 µM
- IC50 (LNCaP-Clone-FGC): > 10.2 µM
- IC50 (DSH1): > 10.2 µM
- IC50 (PSN1): > 10.2 µM
- IC50 (D283 Med): > 10.2 µM
- IC50 (GT3TKB): > 10.2 µM
- IC50 (EW-11): > 10.2 µM
- IC50 (NCI-H209): > 10.2 µM
- IC50 (MC116): > 10.2 µM
- IC50 (A3-KAW): > 10.2 µM
- IC50 (A704): > 10.2 µM
- IC50 (MEG-01): > 10.2 µM
- IC50 (no-10): > 10.2 µM
- IC50 (GAK): > 10.2 µM
- IC50 (KS-1): 8.01 µM
- IC50 (D-247MG): > 10.2 µM
- IC50 (DU-4475): > 10.2 µM
- IC50 (SNB-75): > 10.2 µM
- IC50 (LS-411N): > 10.2 µM
- IC50 (RPMI-8226): > 10.2 µM
- IC50 (LB771-HNC): > 10.2 µM
- IC50 (HT-144): > 10.2 µM
- IC50 (HOP-62): > 10.2 µM
- IC50 (BB65-RCC): > 10.2 µM
- IC50 (NOMO-1): > 10.2 µM
- IC50 (SJSA-1): > 10.2 µM
- IC50 (C2BBe1): > 10.2 µM
- IC50 (SK-PN-DW): > 10.2 µM
- IC50 (KP-N-YS): > 10.2 µM
- IC50 (SW 962): 5.16 µM
- IC50 (BB30-HNC): 3.41 µM
- IC50 (MMAC-SF): > 10.2 µM
- IC50 (TE-1): > 10.2 µM
- IC50 (ES4): > 10.2 µM
- IC50 (MLMA): > 10.2 µM
- IC50 (IST-MEL1): > 10.2 µM
- IC50 (Becker): > 10.2 µM

SMILES: COc1ccc(N(C(=O)Oc2c(C)cccc2C)c2ccnc(Nc3ccc(N4CCN(C)CC4)cc3)n2)c(OC)c1
- IC50 (A498): 0.189 µM
- IC50 (SCH): > 5.12 µM
- IC50 (U-87 MG): > 5.12 µM
- IC50 (HL-60): > 5.12 µM
- IC50 (JAR): > 5.12 µM
- IC50 (BB49-HNC): > 5.12 µM
- IC50 (NB13): > 5.12 µM
- IC50 (TK-10): 1.08 µM
- IC50 (OCUB-M): > 5.12 µM
- IC50 (8-MG-BA): > 5.12 µM
- IC50 (MHH-PREB-1): > 5.12 µM
- IC50 (HD-MY-Z): > 5.12 µM
- IC50 (ES5): > 5.12 µM
- IC50 (ETK-1): > 5.12 µM
- IC50 (LNCaP-Clone-FGC): > 5.12 µM
- IC50 (DSH1): > 5.12 µM
- IC50 (PSN1): > 5.12 µM
- IC50 (D283 Med): > 5.12 µM
- IC50 (GT3TKB): > 5.12 µM
- IC50 (EW-11): > 5.12 µM
- IC50 (NCI-H209): > 5.12 µM
- IC50 (MC116): 2.86 µM
- IC50 (A3-KAW): > 5.12 µM
- IC50 (A704): < 0.02 µM
- IC50 (MEG-01): < 0.02 µM
- IC50 (no-10): > 5.12 µM
- IC50 (GAK): > 5.12 µM
- IC50 (KS-1): 0.0776 µM
- IC50 (D-247MG): > 5.12 µM
- IC50 (DU-4475): > 5.12 µM
- IC50 (SNB-75): 0.358 µM
- IC50 (LS-411N): > 5.12 µM
- IC50 (RPMI-8226): > 5.12 µM
- IC50 (LB771-HNC): > 5.12 µM
- IC50 (HT-144): 1.45 µM
- IC50 (HOP-62): 0.916 µM
- IC50 (BB65-RCC): 4.7 µM
- IC50 (NOMO-1): > 5.12 µM
- IC50 (SJSA-1): > 5.12 µM
- IC50 (C2BBe1): > 5.12 µM
- IC50 (SK-PN-DW): > 5.12 µM
- IC50 (KP-N-YS): 4.92 µM
- IC50 (SW 962): 1.34 µM
- IC50 (BB30-HNC): 1.85 µM
- IC50 (MMAC-SF): > 5.12 µM
- IC50 (TE-1): > 5.12 µM
- IC50 (ES4): > 5.12 µM
- IC50 (MLMA): 1.92 µM
- IC50 (IST-MEL1): > 5.12 µM
- IC50 (Becker): 0.0638 µM
